Experimental data from article PMC9081329, “Pharmacokinetics, Mass Balance, Excretion, and Tissue Distribution of Plasmalogen Precursor PPI-1011” (Frontiers in Cell and Developmental Biology, 2022).

Assay: Single dose tissue distribution study (QWBA, LSC of blood and plasma)
Assay type: in vivo, Sprague-Dawley rats
Method: Six male rats were administered a single oral dose of [^14C]PPI-1011 at 100 mg/kg (200 μCi/kg) and one rat was sacrificed at each of the following time points after the administration of the dose: 8, 12, 18, 24, 48, or 168 h. Terminal blood was collected by cardiac puncture directly into tubes with K2EDTA, an aliquot was stored at 4°C until LSC was performed for radioactivity, while the remaining blood was processed to plasma and stored at −20°C until LSC. Following blood collection, the carcasses were frozen in a cold bath with hexanes and dry ice for at least 8 min and then dried and stored at −70°C for at least 5 h. The carcasses were transferred to a −20°C freezer for at least 12 h before embedding.
QWBA was used to determine radioactivity concentrations in the caecum (contents and mucosa), large intestine (contents and mucosa), small intestine (contents and mucosa), stomach (contents and mucosa), brain, choroid plexus, spinal cord, bone, skin, adrenal gland, pineal body, pituitary gland, thyroid gland, liver, kidney (cortex, medulla and whole kidney), urinary bladder (contents and wall), brown fat, white fat, eye (lens, uveal tract and whole eye), epididymis, prostate gland, testis, ovary, uterus, lung, exorbital lachrymal gland, Harderian gland, pancreas, salivary gland, skeletal muscle, myocardium, cardiac blood, bone marrow, lymph node, spleen, and thymus. As well, LSC was used to determine the total radioactivity in the whole blood and plasma.
The whole-body cryosectioning technique described by ([Ullberg, 1977]) was the basis for embedding and cryosectioning the rats assigned to this study. Each frozen carcass was shaved, and then the limbs and tail were removed prior to embedding. Chilled (4°C) 3% CMC (low viscosity) was utilized to provide a firm support of reinforced ice around each rat and for a secure attachment to the microtome stage. Upon thorough freezing of the embedding medium surrounding each rat, the frozen CMC block was removed from the freezing bath and four 3/8 inch holes were drilled into the block. One cryosection quality control standard (CQCS) was prepared with a known amount of radioactivity and at least 1 ml aliquots were added to each of the four drilled holes. CQCS data were utilized to evaluate the overall performance of the QWBA assay.
Each frozen rat was sagittally trimmed (50–100 μm) at −20°C until exposure of a few target tissues employing a Leica Cryomacrocut heavy-duty microtome (Leica Microsystems Inc.,). Disposable stainless steel Feather type H45L knives (Feather Safety Razor Co., Ltd.) were utilized for trimming and sectioning each frozen rat. Several thinner sections (50 μm) were discarded prior to obtaining multiple 50 μm sections at various cryosectioning levels for QWBA analysis. Upon the collection of at least 60 target tissues in multiple cryosectioning levels, the cryosections were kept in the Cryomacrocut cryochamber for a minimum of 18 h for dehydration depending upon the number of cryosections within the cryochamber. After dehydration was complete, the cryosections were transferred to ambient temperature for processing. Mounted whole-body cryosections and a set of 15 standards were sandwiched between a standard phosphor screen and an exposure cassette. All cryosections were exposed to the phosphor screen for 4-days in a cabinet protected with lead prior to scanning using a Typhoon PhosphorImager (Cytiva). MCID™ Analysis software (InterFocus Ltd.) was utilized to generate a calibration curve of the STD nominal concentrations (nCi/g) versus PhosphorImager response (counts/μm^2 minus background) by weighted (1/x) linear regression analysis ([Potchoiba et al., 1995]; [Potchoiba et al., 1998]). The linear regression curve was then utilized to determine the concentration (nCi/g) of total radioactivity in whole-body tissues and blood. Radioactivity concentrations were expressed as μg Eq/g based on the specific activity of the compound in the final dose formulations. […]

[1] = 12 h post single oral 100 mg/kg
[2] = 18 h post single oral 100 mg/kg
[3] = 24 h post single oral 100 mg/kg

For `CC/C=C\C/C=C\C/C=C\C/C=C\C/C=C\C/C=C\CCC(=O)O[C@H](CO[14CH2]CCCCCCCCCCCCCCC)COC(=O)CCCCC1CCSS1` (stereo partly shown) [[^14C]PPI-1011], the “Radioactivity concentration, Olfactory Bulb” value [1] was 2.01 μg equivalents/g, the “Radioactivity concentration, Pancreas” value [1] was 52.7 μg equivalents/g and the “Radioactivity concentration, Parotid Gland” value [1] was 30.4 μg equivalents/g. For the same compound, the “Radioactivity concentration, Pineal Gland” value [1] was 12.1 μg equivalents/g, the “Radioactivity concentration, Pituitary Gland” value [1] was 21.2 μg equivalents/g and the “Radioactivity concentration, Preputial Gland” value [1] was 214 μg equivalents/g. For the same compound, the “Radioactivity concentration, Prostate” value [1] was 11.8 μg equivalents/g, the “Radioactivity concentration, Renal Cortex” value [1] was 46.6 μg equivalents/g and the “Radioactivity concentration, Renal Medulla” value [1] was 53.2 μg equivalents/g. The “Radioactivity concentration, Salivary Gland” value [1] was 31.4 μg equivalents/g, the “Radioactivity concentration, Seminal Vesicles” value [1] was 2.99 μg equivalents/g and the “Radioactivity concentration, Skin - Non-Pigmented” value [1] was 18.0 μg equivalents/g. For the same compound, the “Radioactivity concentration, Small Intestines” value [1] was 347 μg equivalents/g, the “Radioactivity concentration, Spinal Cord” value [1] was 2.76 μg equivalents/g and the “Radioactivity concentration, Spleen” value [1] was 111 μg equivalents/g. The “Radioactivity concentration, Stomach” value [1] was 22.9 μg equivalents/g, the “Radioactivity concentration, Testis” value [1] was 4.12 μg equivalents/g and the “Radioactivity concentration, Thalamus” value [1] was 2.31 μg equivalents/g. For the same compound, the “Radioactivity concentration, Thymus” value [1] was 12.2 μg equivalents/g, the “Radioactivity concentration, Thyroid” value [1] was 43.1 μg equivalents/g and the “Radioactivity concentration, Whole Brain” value [1] was 2.48 μg equivalents/g. The “Radioactivity concentration, Adipose - Brown” value [2] was 66.0 μg equivalents/g, the “Radioactivity concentration, Adipose - Brown (Vessel Wall)” value [2] was 94.2 μg equivalents/g and the “Radioactivity concentration, Adipose - Subcutaneous” value [2] was 73.9 μg equivalents/g. The “Radioactivity concentration, Adipose - Visceral” value [2] was 75.6 μg equivalents/g, the “Radioactivity concentration, Adrenal Gland” value [2] was 185 μg equivalents/g and the “Radioactivity concentration, Bladder Wall” value [2] was 14.5 μg equivalents/g. For the same compound, the “Radioactivity concentration, Blood - QWBA” value [2] was 9.62 μg equivalents/g, the “Radioactivity concentration, Bone Marrow” value [2] was 22.3 μg equivalents/g and the “Radioactivity concentration, Bone Surface” value [2] was 1.25 μg equivalents/g. The “Radioactivity concentration, Cecum” value [2] was 177 μg equivalents/g, the “Radioactivity concentration, Cerebellum” value [2] was 3.03 μg equivalents/g and the “Radioactivity concentration, Cerebrum” value [2] was 2.49 μg equivalents/g. The “Radioactivity concentration, Choroid Plexus” value [2] was 12.8 μg equivalents/g, the “Radioactivity concentration, Colliculus” value [2] was 2.94 μg equivalents/g and the “Radioactivity concentration, Diaphragm” value [2] was 40.4 μg equivalents/g. For the same compound, the “Radioactivity concentration, Epididymis” value [2] was 67.7 μg equivalents/g, the “Radioactivity concentration, Esophagus” value [2] was 15.0 μg equivalents/g and the “Radioactivity concentration, Exorbital Lacrimal Gland” value [2] was 8.74 μg equivalents/g. The “Radioactivity concentration, Gastric Mucosa” value [2] was 70.1 μg equivalents/g, the “Radioactivity concentration, Harderian Gland” value [2] was 14.7 μg equivalents/g and the “Radioactivity concentration, Intra-Orbital Lacrimal Gland” value [2] was 8.91 μg equivalents/g. For the same compound, the “Radioactivity concentration, Kidney” value [2] was 36.1 μg equivalents/g, the “Radioactivity concentration, Large Intestines” value [2] was 154 μg equivalents/g and the “Radioactivity concentration, Liver” value [2] was 121 μg equivalents/g. For the same compound, the “Radioactivity concentration, Lung” value [2] was 45.4 μg equivalents/g, the “Radioactivity concentration, Lymph Node” value [2] was 22.5 μg equivalents/g and the “Radioactivity concentration, Medulla Oblongata” value [2] was 2.23 μg equivalents/g. The “Radioactivity concentration, Muscle” value [2] was 9.63 μg equivalents/g, the “Radioactivity concentration, Myocardium” value [2] was 42.4 μg equivalents/g and the “Radioactivity concentration, Nasal Turbinates” value [2] was 6.43 μg equivalents/g. For the same compound, the “Radioactivity concentration, Ocular - Uveal Tract” value [2] was 5.32 μg equivalents/g, the “Radioactivity concentration, Ocular - Whole Eye” value [2] was 1.65 μg equivalents/g and the “Radioactivity concentration, Olfactory Bulb” value [2] was 1.75 μg equivalents/g. The “Radioactivity concentration, Pancreas” value [2] was 39.8 μg equivalents/g, the “Radioactivity concentration, Parotid Gland” value [2] was 35.2 μg equivalents/g and the “Radioactivity concentration, Pineal Gland” value [2] was 16.2 μg equivalents/g. For the same compound, the “Radioactivity concentration, Pituitary Gland” value [2] was 22.0 μg equivalents/g, the “Radioactivity concentration, Preputial Gland” value [2] was 78.0 μg equivalents/g and the “Radioactivity concentration, Prostate” value [2] was 28.0 μg equivalents/g. For the same compound, the “Radioactivity concentration, Renal Cortex” value [2] was 38.1 μg equivalents/g, the “Radioactivity concentration, Renal Medulla” value [2] was 23.0 μg equivalents/g and the “Radioactivity concentration, Salivary Gland” value [2] was 28.8 μg equivalents/g. The “Radioactivity concentration, Skin - Non-Pigmented” value [2] was 12.0 μg equivalents/g, the “Radioactivity concentration, Small Intestines” value [2] was 239 μg equivalents/g and the “Radioactivity concentration, Spinal Cord” value [2] was 3.20 μg equivalents/g. For the same compound, the “Radioactivity concentration, Spleen” value [2] was 71.3 μg equivalents/g, the “Radioactivity concentration, Stomach” value [2] was 21.6 μg equivalents/g and the “Radioactivity concentration, Testis” value [2] was 5.09 μg equivalents/g. The “Radioactivity concentration, Thalamus” value [2] was 2.20 μg equivalents/g, the “Radioactivity concentration, Thymus” value [2] was 11.8 μg equivalents/g and the “Radioactivity concentration, Thyroid” value [2] was 38.5 μg equivalents/g. For the same compound, the “Radioactivity concentration, Whole Brain” value [2] was 2.70 μg equivalents/g, the “Radioactivity concentration, Adipose - Brown” value [3] was 133 μg equivalents/g and the “Radioactivity concentration, Adipose - Brown (Vessel Wall)” value [3] was 110 μg equivalents/g. For the same compound, the “Radioactivity concentration, Adipose - Subcutaneous” value [3] was 70.1 μg equivalents/g, the “Radioactivity concentration, Adipose - Visceral” value [3] was 71.6 μg equivalents/g and the “Radioactivity concentration, Adrenal Gland” value [3] was 155 μg equivalents/g. The “Radioactivity concentration, Bladder Wall” value [3] was 7.69 μg equivalents/g, the “Radioactivity concentration, Blood - QWBA” value [3] was 5.62 μg equivalents/g and the “Radioactivity concentration, Bone Marrow” value [3] was 18.3 μg equivalents/g. For the same compound, the “Radioactivity concentration, Bone Surface” value [3] was 0.513 μg equivalents/g, the “Radioactivity concentration, Cecum” value [3] was 231 μg equivalents/g and the “Radioactivity concentration, Cerebellum” value [3] was 2.08 μg equivalents/g. The “Radioactivity concentration, Cerebrum” value [3] was 1.61 μg equivalents/g.
